TGI data for ten molecules are collected here from PubChem BioAssay (NCI).

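Method: 48-hour compound exposure of cells in 96-well plates, five concentrations, linear interpolation of endpoints. TGI is the concentration that stops growth completely.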

Test systems include SK-OV-3 ovarian; MDA-MB-435; NCI-H226 lung; DU-145 prostate; KM12 colon; NCI-H522 lung; K-562 leukemia; SK-MEL-28 melanoma; MDA-MB-231 breast; HOP-92 NSCLC; OVCAR-8 ovarian; A498 renal; SF-539 CNS; CCRF-CEM leukemia; SNB-75 CNS.
Assay in all cases: growth of human tumour cells (NCI), 48 h

With `CN(C(=O)Cc1ccc(Cl)c(Cl)c1)[C@@H]1CCCC[C@H]1[N+]1(C)CC=CC1`, the TGI in the assay with SK-OV-3 ovarian, with MDA-MB-435, in the assay on NCI-H226 lung, in the assay with DU-145 prostate, with KM12 colon and in the assay with NCI-H522 lung was greater than 100 µM each time. Further, the TGI in the assay on K-562 leukemia, with SK-MEL-28 melanoma, in the assay with MDA-MB-231 breast, in the assay with HOP-92 NSCLC, in the assay on OVCAR-8 ovarian and in the assay with A498 renal was greater than 100 µM each time.
Regarding `O=c1[nH]nc(Cc2ccccc2)n1/N=C/c1ccccc1Cl`, the TGI in the assay on SK-OV-3 ovarian, in the assay on MDA-MB-435, in the assay on NCI-H226 lung, in the assay on DU-145 prostate, in the assay with KM12 colon and in the assay on NCI-H522 lung was greater than 100 µM in each case. Moreover, the TGI with K-562 leukemia, in the assay on SF-539 CNS, with MDA-MB-231 breast, in the assay on HOP-92 NSCLC, in the assay with OVCAR-8 ovarian and with A498 renal was greater than 100 µM each time.
On to `O=C(CCc1ccc(O)cc1)NCCc1cccc(OCc2ccccc2)c1`, for which the TGI is greater than 100 µM in the assay with SK-OV-3 ovarian; 38.6 µM with MDA-MB-435; 97.8 µM in the assay on NCI-H226 lung; greater than 100 µM in the assay on DU-145 prostate; 83 µM in the assay with KM12 colon; 99.3 µM with NCI-H522 lung. The TGI in the assay on K-562 leukemia is 65.9 µM; with SF-539 CNS it was 31 µM; in the assay on SK-MEL-28 melanoma it was 63.2 µM; in the assay with CCRF-CEM leukemia it was 20.7 µM; with MDA-MB-231 breast, greater than 100 µM; in the assay with HOP-92 NSCLC, 70.9 µM. The TGI in the assay with OVCAR-8 ovarian and in the assay with A498 renal was greater than 100 µM each time.
On to `COc1ccc(C2=C(N)c3c(OC)cccc3C2=O)cc1`, for which the TGI in the assay on SK-OV-3 ovarian, in the assay with MDA-MB-435, in the assay with NCI-H226 lung, in the assay on DU-145 prostate, in the assay on KM12 colon and in the assay on K-562 leukemia was greater than 100 µM throughout. For the same molecule, the TGI in the assay with SF-539 CNS is 41.3 µM; in the assay with SK-MEL-28 melanoma it was greater than 100 µM; with CCRF-CEM leukemia it was greater than 100 µM; in the assay on SNB-75 CNS, greater than 100 µM; with MDA-MB-231 breast it was greater than 100 µM; with OVCAR-8 ovarian it was greater than 100 µM. For the same molecule, the TGI with A498 renal is greater than 100 µM.
As to `O=C1CCC2CCC1C2` (stereo not drawn), the TGI in the assay on SK-OV-3 ovarian, in the assay with MDA-MB-435, in the assay on NCI-H226 lung, in the assay with DU-145 prostate, in the assay with KM12 colon and in the assay on K-562 leukemia was greater than 100 µM throughout. In addition, the TGI in the assay with SF-539 CNS, with SK-MEL-28 melanoma, in the assay on CCRF-CEM leukemia, in the assay with SNB-75 CNS, in the assay on MDA-MB-231 breast and with OVCAR-8 ovarian was greater than 100 µM throughout. In addition, the TGI in the assay on A498 renal is greater than 100 µM.
For `O=C(O)c1ccccc1C(=O)Nn1cnnc1`, the TGI in the assay on SK-OV-3 ovarian, in the assay on MDA-MB-435, in the assay with DU-145 prostate, in the assay with KM12 colon, with NCI-H522 lung and in the assay with K-562 leukemia was greater than 100 µM in each case. Moreover, the TGI with SF-539 CNS, in the assay on SK-MEL-28 melanoma, in the assay on CCRF-CEM leukemia, in the assay on SNB-75 CNS, with MDA-MB-231 breast and in the assay on HOP-92 NSCLC was greater than 100 µM each time. The TGI with OVCAR-8 ovarian was greater than 100 µM.
As for `COc1ccc2c(c1)CCc1[nH]c3ccccc3c1CCCC2`, the TGI in the assay on SK-OV-3 ovarian, in the assay with MDA-MB-435, in the assay on DU-145 prostate, with KM12 colon, in the assay with NCI-H522 lung and with K-562 leukemia was greater than 10 µM throughout. Further, the TGI in the assay with SF-539 CNS, in the assay with SK-MEL-28 melanoma, with CCRF-CEM leukemia, in the assay with SNB-75 CNS, in the assay with MDA-MB-231 breast and in the assay on HOP-92 NSCLC was greater than 10 µM throughout. This molecule also gave a TGI in the assay on OVCAR-8 ovarian greater than 10 µM.
`COc1ccc2cc(/C=N\NC(=O)Nc3cccc4ccccc34)ccc2c1`: the TGI in the assay with MDA-MB-435 is greater than 100 µM; with NCI-H226 lung it was greater than 100 µM; in the assay on DU-145 prostate, greater than 100 µM; in the assay on KM12 colon it was greater than 100 µM; with NCI-H522 lung, greater than 100 µM; in the assay on K-562 leukemia, 36.5 µM. The TGI with SF-539 CNS is greater than 100 µM; in the assay on SK-MEL-28 melanoma, greater than 100 µM; in the assay on CCRF-CEM leukemia, 41.8 µM; with SNB-75 CNS it was 47.2 µM; in the assay on MDA-MB-231 breast, 65.7 µM; in the assay with OVCAR-8 ovarian, greater than 100 µM. Besides, the TGI in the assay with A498 renal turned out to be 31.3 µM.
`O=c1c2cccnc2cc(-c2ccccc2)n1CCO`: the TGI in the assay with SK-OV-3 ovarian, in the assay with MDA-MB-435, with NCI-H226 lung, in the assay with DU-145 prostate, with KM12 colon and in the assay with NCI-H522 lung was greater than 100 µM throughout. The TGI in the assay on K-562 leukemia, with SK-MEL-28 melanoma, in the assay with CCRF-CEM leukemia, in the assay with SNB-75 CNS, in the assay with MDA-MB-231 breast and with OVCAR-8 ovarian was greater than 100 µM each time. This molecule registered a TGI in the assay on A498 renal greater than 100 µM.
In the case of `COc1cc(NP(=O)(Oc2ccccc2)Oc2ccccc2)ccc1Nc1c2ccccc2nc2c1[nH]c1ccccc12`, the TGI in the assay with SK-OV-3 ovarian is 20.9 µM; in the assay with MDA-MB-435 it was 21.5 µM; in the assay with NCI-H226 lung it was 20.2 µM; with DU-145 prostate, 1.56 µM; in the assay on KM12 colon it was greater than 100 µM; in the assay on NCI-H522 lung, 7.32 µM. Also, the TGI was 6.71 µM with K-562 leukemia; 48.2 µM with SK-MEL-28 melanoma; 5.7 µM with SNB-75 CNS; 28.6 µM in the assay with MDA-MB-231 breast; 3.8 µM in the assay on HOP-92 NSCLC; 14 µM with A498 renal.
